Data: publication PMC12300041, “Tricyclic Isatin Derivatives as Anti-Inflammatory Compounds with High Kinase Binding Affinity” (Molecules, 2025)

Experiments:
Test in all cases: KINOMEscan
Type in all cases: binding
SgK110 = molecular target: T1, SgK110 (Homo sapiens, UniProt P0C264)
T1 construct: purchased Eurofins DiscoverX KINOMEscan
In short: (§1)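 Compound and kinase were incubated at room temperature for 1 h, the free kinase fraction was captured with an immobilized affinity ligand, and capture was quantified by quantitative PCR; Kd values used a 12-point half-log series up to 33 μM.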

MELK = molecular target: T2, MELK (Homo sapiens, UniProt Q14680)
T2 construct: purchased Eurofins DiscoverX KINOMEscan
In short: (§2)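 1 h RT binding → immobilized-ligand capture of free kinase → qPCR quantitation. Kd: 12 half-log points, max 33 μM.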

MARK1 = molecular target: T3, MARK1 (Homo sapiens, UniProt Q9P0L2)
T3 construct: purchased Eurofins DiscoverX KINOMEscan
In short: as §2

EIF2AK1 = molecular target: T4, EIF2AK1 (Homo sapiens, UniProt Q9BQI3)
T4 construct: purchased Eurofins DiscoverX KINOMEscan
In short: as §2

PIKFYVE = molecular target: T5, PIKFYVE (Homo sapiens, UniProt Q9Y2I7)
T5 construct: purchased Eurofins DiscoverX KINOMEscan
T5 sequence (Q9Y2I7 whole entry): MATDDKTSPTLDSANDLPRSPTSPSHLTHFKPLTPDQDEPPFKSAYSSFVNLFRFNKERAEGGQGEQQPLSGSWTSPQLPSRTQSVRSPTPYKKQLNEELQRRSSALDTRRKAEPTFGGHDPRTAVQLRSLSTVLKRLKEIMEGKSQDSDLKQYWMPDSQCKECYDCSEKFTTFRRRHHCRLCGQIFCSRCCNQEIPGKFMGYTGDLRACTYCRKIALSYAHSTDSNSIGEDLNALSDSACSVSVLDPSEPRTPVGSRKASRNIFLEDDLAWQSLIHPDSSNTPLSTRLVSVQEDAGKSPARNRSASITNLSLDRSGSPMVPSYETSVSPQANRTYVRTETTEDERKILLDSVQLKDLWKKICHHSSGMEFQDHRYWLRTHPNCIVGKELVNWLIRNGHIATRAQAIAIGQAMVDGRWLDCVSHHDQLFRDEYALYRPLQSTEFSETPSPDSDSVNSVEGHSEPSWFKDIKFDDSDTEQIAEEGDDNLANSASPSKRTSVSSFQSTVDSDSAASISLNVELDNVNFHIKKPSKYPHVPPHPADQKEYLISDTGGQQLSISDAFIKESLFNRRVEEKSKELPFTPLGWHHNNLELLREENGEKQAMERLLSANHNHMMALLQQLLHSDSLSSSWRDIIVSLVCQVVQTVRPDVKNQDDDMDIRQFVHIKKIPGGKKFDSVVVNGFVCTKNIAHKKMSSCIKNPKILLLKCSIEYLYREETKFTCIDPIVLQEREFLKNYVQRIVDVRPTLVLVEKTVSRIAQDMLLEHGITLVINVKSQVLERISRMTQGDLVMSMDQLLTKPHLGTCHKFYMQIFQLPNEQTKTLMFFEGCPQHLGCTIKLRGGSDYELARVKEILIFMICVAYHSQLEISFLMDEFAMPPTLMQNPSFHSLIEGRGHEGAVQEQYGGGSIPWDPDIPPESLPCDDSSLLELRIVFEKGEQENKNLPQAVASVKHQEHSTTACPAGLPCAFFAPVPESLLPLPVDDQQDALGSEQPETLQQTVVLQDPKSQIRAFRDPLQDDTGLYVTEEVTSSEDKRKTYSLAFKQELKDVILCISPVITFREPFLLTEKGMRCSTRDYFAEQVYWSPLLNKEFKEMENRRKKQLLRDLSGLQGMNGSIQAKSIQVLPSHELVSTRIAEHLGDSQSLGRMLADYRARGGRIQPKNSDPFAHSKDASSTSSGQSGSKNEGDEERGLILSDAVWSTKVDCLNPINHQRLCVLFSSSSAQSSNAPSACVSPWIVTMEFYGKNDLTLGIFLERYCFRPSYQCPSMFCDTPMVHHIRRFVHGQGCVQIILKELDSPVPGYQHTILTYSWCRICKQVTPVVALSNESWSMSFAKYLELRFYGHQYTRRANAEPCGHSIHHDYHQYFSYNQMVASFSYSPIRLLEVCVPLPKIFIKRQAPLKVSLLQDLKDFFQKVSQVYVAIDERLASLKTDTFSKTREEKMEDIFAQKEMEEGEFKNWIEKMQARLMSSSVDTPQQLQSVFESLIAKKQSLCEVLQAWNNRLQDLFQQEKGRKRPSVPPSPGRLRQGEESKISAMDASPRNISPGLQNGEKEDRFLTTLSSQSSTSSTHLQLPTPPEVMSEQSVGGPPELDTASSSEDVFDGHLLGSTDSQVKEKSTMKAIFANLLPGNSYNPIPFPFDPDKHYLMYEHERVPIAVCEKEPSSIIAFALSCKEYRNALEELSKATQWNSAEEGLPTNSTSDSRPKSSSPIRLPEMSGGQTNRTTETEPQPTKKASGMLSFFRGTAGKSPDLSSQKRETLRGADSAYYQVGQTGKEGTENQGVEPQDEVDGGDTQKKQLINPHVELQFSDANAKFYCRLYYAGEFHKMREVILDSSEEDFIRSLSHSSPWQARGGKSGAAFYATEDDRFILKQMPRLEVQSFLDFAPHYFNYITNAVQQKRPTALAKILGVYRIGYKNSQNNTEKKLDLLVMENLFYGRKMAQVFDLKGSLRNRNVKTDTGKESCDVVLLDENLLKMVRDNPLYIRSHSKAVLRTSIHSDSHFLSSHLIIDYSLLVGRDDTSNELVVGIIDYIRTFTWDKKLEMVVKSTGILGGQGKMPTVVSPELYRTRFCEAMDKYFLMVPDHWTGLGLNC
In short: as §2

SRPK3 = molecular target: T6, SRPK3 (Homo sapiens, UniProt Q9UPE1)
T6 construct: purchased Eurofins DiscoverX KINOMEscan
In short: as §2

ASK1 = molecular target: T7, ASK1 (Homo sapiens, UniProt Q99683)
T7 construct: purchased Eurofins DiscoverX KINOMEscan
In short: as §1

ANKK1 = molecular target: T8, ANKK1 (Homo sapiens, UniProt Q8NFD2)
T8 construct: purchased Eurofins DiscoverX KINOMEscan
In short: as §1

RIPK4 = molecular target: T9, RIPK4 (Homo sapiens, UniProt P57078)
T9 construct: purchased Eurofins DiscoverX KINOMEscan
T9 sequence (P57078 whole entry): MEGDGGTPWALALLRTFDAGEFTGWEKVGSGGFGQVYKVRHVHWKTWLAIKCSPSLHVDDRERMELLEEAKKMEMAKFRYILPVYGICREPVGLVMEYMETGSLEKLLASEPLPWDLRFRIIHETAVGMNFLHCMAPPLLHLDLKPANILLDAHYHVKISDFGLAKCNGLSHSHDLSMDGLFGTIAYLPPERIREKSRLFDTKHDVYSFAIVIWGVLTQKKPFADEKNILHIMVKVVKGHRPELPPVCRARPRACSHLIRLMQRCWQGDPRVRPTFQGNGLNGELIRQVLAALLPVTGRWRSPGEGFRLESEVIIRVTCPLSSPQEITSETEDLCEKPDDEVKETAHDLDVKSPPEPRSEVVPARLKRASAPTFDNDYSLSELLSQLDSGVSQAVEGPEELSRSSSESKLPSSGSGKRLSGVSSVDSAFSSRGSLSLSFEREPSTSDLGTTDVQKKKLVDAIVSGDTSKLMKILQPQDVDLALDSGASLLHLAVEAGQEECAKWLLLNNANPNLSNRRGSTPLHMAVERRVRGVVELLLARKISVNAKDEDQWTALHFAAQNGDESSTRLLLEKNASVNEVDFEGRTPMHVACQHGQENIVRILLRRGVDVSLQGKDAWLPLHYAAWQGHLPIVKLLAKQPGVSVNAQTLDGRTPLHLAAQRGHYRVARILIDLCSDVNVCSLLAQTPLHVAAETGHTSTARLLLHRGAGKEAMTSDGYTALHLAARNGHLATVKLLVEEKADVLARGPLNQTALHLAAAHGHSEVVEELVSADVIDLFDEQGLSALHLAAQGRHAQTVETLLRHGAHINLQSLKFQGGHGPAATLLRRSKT
In short: as §2

CSF1R = molecular target: T10, CSF1R (Homo sapiens, UniProt P07333)
T10 construct: purchased Eurofins DiscoverX KINOMEscan
In short: as §2

KIT (A829P) = molecular target: T11, KIT (A829P) (Homo sapiens, UniProt P10721, A829P)
T11 construct: purchased Eurofins DiscoverX KINOMEscan
In short: as §2

[1] = molecular target: T12, JAK1 (JH2domain-pseudokinase) (Homo sapiens, UniProt P23458)
T12 construct: JAK1 (JH2domain-pseudokinase); purchased Eurofins DiscoverX KINOMEscan
In short: as §1

JNK3 = molecular target: T13, JNK3 (Homo sapiens, UniProt P53779)
T13 construct: purchased Eurofins DiscoverX KINOMEscan
In short: as §2

PRKCD = molecular target: T14, PRKCD (Homo sapiens, UniProt Q05655)
T14 construct: purchased Eurofins DiscoverX KINOMEscan
In short: as §2

INSR = molecular target: T15, INSR (Homo sapiens, UniProt P06213)
T15 construct: purchased Eurofins DiscoverX KINOMEscan
In short: as §1

MRCKA = molecular target: T16, MRCKA (Homo sapiens, UniProt Q5VT25)
T16 construct: purchased Eurofins DiscoverX KINOMEscan
In short: as §2

ABL1 (H396P)-non-P = molecular target: T17, ABL1 (H396P)-non-P (Homo sapiens, UniProt P00519, H396P)
T17 construct: purchased Eurofins DiscoverX KINOMEscan
In short: as §2

ABL1 (T315I)-non-P = molecular target: T18, ABL1 (T315I)-non-P (Homo sapiens, UniProt P00519, T315I)
T18 construct: purchased Eurofins DiscoverX KINOMEscan
In short: as §2

PIK3CA (I800L) = molecular target: T19, PIK3CA (I800L) (Homo sapiens, UniProt P42336, I800L)
T19 construct: purchased Eurofins DiscoverX KINOMEscan
In short: as §2

STK33 = molecular target: T20, STK33 (Homo sapiens, UniProt Q9BYT3)
T20 construct: purchased Eurofins DiscoverX KINOMEscan
In short: as §2

PAK4 = molecular target: T21, PAK4 (Homo sapiens, UniProt O96013)
T21 construct: purchased Eurofins DiscoverX KINOMEscan
In short: as §2

CDKL3 = molecular target: T22, CDKL3 (Homo sapiens, UniProt Q8IVW4)
T22 construct: purchased Eurofins DiscoverX KINOMEscan
In short: as §2

ZAP70 = molecular target: T23, ZAP70 (Homo sapiens, UniProt P43403)
T23 construct: purchased Eurofins DiscoverX KINOMEscan
In short: as §2

SIK2 = molecular target: T24, SIK2 (Homo sapiens, UniProt Q9H0K1)
T24 construct: purchased Eurofins DiscoverX KINOMEscan
In short: as §2

PIK3CD = molecular target: T25, PIK3CD (Homo sapiens, UniProt O00329)
T25 construct: purchased Eurofins DiscoverX KINOMEscan
In short: as §2

MAP4K4 = molecular target: T26, MAP4K4 (Homo sapiens, UniProt O95819)
T26 construct: purchased Eurofins DiscoverX KINOMEscan
In short: as §2

MYO3A = molecular target: T27, MYO3A (Homo sapiens, UniProt Q8NEV4)
T27 construct: purchased Eurofins DiscoverX KINOMEscan
T27 sequence (Q8NEV4 whole entry): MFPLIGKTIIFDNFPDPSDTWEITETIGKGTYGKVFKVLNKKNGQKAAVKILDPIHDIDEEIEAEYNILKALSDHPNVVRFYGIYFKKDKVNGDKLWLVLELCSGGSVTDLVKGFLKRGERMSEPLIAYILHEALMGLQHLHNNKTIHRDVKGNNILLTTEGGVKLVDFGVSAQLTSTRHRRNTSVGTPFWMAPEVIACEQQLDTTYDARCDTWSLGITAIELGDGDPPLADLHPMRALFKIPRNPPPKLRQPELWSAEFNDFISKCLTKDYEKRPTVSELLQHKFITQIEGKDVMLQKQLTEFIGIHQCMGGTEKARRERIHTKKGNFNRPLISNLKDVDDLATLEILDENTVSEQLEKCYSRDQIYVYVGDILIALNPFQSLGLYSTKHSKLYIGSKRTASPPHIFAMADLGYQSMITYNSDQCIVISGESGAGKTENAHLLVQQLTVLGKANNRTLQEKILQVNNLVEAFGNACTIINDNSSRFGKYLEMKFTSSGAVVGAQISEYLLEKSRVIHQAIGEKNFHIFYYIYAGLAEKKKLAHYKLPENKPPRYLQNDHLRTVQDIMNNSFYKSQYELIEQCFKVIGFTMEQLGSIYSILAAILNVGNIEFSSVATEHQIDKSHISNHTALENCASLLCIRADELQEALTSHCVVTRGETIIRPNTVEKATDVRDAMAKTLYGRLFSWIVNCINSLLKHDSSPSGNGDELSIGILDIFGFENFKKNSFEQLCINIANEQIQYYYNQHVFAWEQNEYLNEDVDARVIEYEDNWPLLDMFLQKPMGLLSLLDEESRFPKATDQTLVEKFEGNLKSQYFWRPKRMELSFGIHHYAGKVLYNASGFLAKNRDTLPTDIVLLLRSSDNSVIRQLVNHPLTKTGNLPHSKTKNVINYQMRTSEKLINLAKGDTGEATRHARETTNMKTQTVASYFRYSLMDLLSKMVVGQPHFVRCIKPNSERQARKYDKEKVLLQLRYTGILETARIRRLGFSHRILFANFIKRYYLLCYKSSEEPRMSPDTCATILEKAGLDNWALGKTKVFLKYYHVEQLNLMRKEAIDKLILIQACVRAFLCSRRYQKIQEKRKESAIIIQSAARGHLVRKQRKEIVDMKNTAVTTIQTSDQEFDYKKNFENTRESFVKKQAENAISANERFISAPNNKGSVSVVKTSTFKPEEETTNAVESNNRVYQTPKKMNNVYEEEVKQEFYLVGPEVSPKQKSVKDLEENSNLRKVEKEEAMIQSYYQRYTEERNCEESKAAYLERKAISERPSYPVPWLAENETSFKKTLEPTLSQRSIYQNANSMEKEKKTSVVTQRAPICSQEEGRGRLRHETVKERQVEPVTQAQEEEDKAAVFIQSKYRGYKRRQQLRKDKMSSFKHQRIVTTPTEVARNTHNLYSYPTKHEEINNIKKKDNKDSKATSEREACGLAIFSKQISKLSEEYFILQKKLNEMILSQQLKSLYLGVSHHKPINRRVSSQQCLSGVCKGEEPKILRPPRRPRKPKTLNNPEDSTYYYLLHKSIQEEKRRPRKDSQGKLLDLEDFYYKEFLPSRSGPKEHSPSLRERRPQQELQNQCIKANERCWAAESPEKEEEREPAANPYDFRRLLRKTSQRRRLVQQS
In short: as §2

ABL1 (T315I)-P = molecular target: T28, ABL1 (T315I)-P (Homo sapiens, UniProt P00519, T315I)
T28 construct: purchased Eurofins DiscoverX KINOMEscan
In short: as §2

SRC = molecular target: T29, SRC (Homo sapiens, UniProt P12931)
T29 construct: purchased Eurofins DiscoverX KINOMEscan
In short: as §2

LZK = molecular target: T30, LZK (Homo sapiens, UniProt O43283)
T30 construct: purchased Eurofins DiscoverX KINOMEscan
In short: as §2

ACVRL1 = molecular target: T31, ACVRL1 (Homo sapiens, UniProt P37023)
T31 construct: purchased Eurofins DiscoverX KINOMEscan
In short: as §1

BMX = molecular target: T32, BMX (Homo sapiens, UniProt P51813)
T32 construct: purchased Eurofins DiscoverX KINOMEscan
In short: as §2

RET (M918T) = molecular target: T33, RET (M918T) (Homo sapiens, UniProt P07949, M918T)
T33 construct: purchased Eurofins DiscoverX KINOMEscan
In short: as §2

ROCK2 = molecular target: T34, ROCK2 (Homo sapiens, UniProt O75116)
T34 construct: purchased Eurofins DiscoverX KINOMEscan
In short: as §1

GRK3 = molecular target: T35, GRK3 (Homo sapiens, UniProt P35626)
T35 construct: purchased Eurofins DiscoverX KINOMEscan
In short: as §2

MAP3K2 = molecular target: T36, MAP3K2 (Homo sapiens, UniProt Q9Y2U5)
T36 construct: purchased Eurofins DiscoverX KINOMEscan
In short: as §2

TSSK1B = molecular target: T37, TSSK1B (Homo sapiens, UniProt Q9BXA7)
T37 construct: purchased Eurofins DiscoverX KINOMEscan
T37 sequence (Q9BXA7 whole entry): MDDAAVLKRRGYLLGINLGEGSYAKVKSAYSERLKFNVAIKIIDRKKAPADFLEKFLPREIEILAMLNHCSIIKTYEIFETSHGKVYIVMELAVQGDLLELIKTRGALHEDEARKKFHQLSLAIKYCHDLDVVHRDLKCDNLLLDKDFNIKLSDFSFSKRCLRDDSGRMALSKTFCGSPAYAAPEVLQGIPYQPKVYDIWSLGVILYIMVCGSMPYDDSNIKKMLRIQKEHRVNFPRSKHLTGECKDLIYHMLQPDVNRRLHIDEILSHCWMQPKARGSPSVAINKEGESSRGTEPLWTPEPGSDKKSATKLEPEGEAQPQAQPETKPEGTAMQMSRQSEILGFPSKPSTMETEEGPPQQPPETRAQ
In short: as §2

MAP4K5 = molecular target: T38, MAP4K5 (Homo sapiens, UniProt Q9Y4K4)
T38 construct: purchased Eurofins DiscoverX KINOMEscan
In short: as §2

EPHB2 = molecular target: T39, EPHB2 (Homo sapiens, UniProt P29323)
T39 construct: purchased Eurofins DiscoverX KINOMEscan
In short: as §1

O=C1Nc2c(cc([N+](=O)[O-])c3c2CCCC3)C1=NO [Compound 5d, 3-(Hydroxyimino)-5-nitro-1,3,6,7,8,9-hexahydro-2H-benzo[g]indol-2-one]
inhibition at 10 µM (SgK110): 0% | inhibition at 10 µM (MELK): 56% | inhibition at 10 µM (MARK1): 24% | inhibition at 10 µM (EIF2AK1): 40% | inhibition at 10 µM (PIKFYVE): 28% | inhibition at 10 µM (SRPK3): 66% | inhibition at 10 µM (ASK1): 50% | inhibition at 10 µM (ANKK1): 8% | inhibition at 10 µM (RIPK4): 55% | inhibition at 10 µM (CSF1R): 0% | inhibition at 10 µM (KIT (A829P)): 0% | inhibition at 10 µM [1]: 89% | inhibition at 10 µM (JNK3): 52% | inhibition at 10 µM (PRKCD): 10% | inhibition at 10 µM (INSR): 1% | inhibition at 10 µM (MRCKA): 17% | inhibition at 10 µM (ABL1 (H396P)-non-P): 65% | inhibition at 10 µM (ABL1 (T315I)-non-P): 1% | inhibition at 10 µM (PIK3CA (I800L)): 5% | inhibition at 10 µM (STK33): 62% | inhibition at 10 µM (PAK4): 43% | inhibition at 10 µM (CDKL3): 7% | inhibition at 10 µM (ZAP70): 2% | inhibition at 10 µM (SIK2): 7% | inhibition at 10 µM (PIK3CD): 42% | inhibition at 10 µM (MAP4K4): 47% | inhibition at 10 µM (MYO3A): 51% | inhibition at 10 µM (ABL1 (T315I)-P): 17% | inhibition at 10 µM (SRC): 28% | inhibition at 10 µM (LZK): 0% | inhibition at 10 µM (ACVRL1): 0% | inhibition at 10 µM (BMX): 13% | inhibition at 10 µM (RET (M918T)): 8% | inhibition at 10 µM (ROCK2): 54% | inhibition at 10 µM (GRK3): 77% | inhibition at 10 µM (MAP3K2): 79% | inhibition at 10 µM (TSSK1B): 0% | inhibition at 10 µM (MAP4K5): 12% | inhibition at 10 µM (EPHB2): 11%
